ChEMBL document CHEMBL4808236, “New phorbol ester derivatives as potent anti-HIV agents” (Bioorg Med Chem Lett, 2021)

What was measured:
[1] = system: MCF7; experiment: Antiproliferative activity against human MCF7 cells assessed as reduction in cell viability measured after 72 hrs by SRB assay; assay type: functional, cell-based; settings: MCF7, 72 h
[2] = system: A549; experiment: Antiproliferative activity against human A549 cells assessed as reduction in cell viability measured after 72 hrs by SRB assay; settings: A549, 72 h
[3] = system: MDA-MB-231; experiment: Antiproliferative activity against human MDA-MB-231 cells assessed as reduction in cell viability measured after 72 hrs by SRB assay; assay type: functional, cell-based; settings: MDA-MB-231, 72 h
[4] = system: KB; experiment: Antiproliferative activity against human KB cells assessed as reduction in cell viability measured after 72 hrs by SRB assay; assay type: functional, cell-based
[5] = Antiproliferative activity against human KB-VIN cells assessed as reduction in cell viability after 72 hrs by SRB assay; assay type: functional, cell-based; settings: KBVIN
[6] = system: MT4; experiment: Cytotoxicity against human MT4 cells assessed as reduction in cell viability by CellTiter-Glo luminescence assay; assay type: cell-based
[7] = system: Human immunodeficiency virus 1; experiment: Antiviral activity against HIV-1 NL4-3 infected in human MT4 cells assessed as reduction in p24 production treated at 48 hrs post-infection and measured on day 4 post-viral infection by ELISA; assay type: functional, organism-based; settings: Human immunodeficiency virus 1, NL4-3, MT4
[8] = Selectivity index, ratio of CC75 for cytotoxicity against human MT4 cells to IC50 for antiviral activity against HIV-1 NL4-3 infected in human MT4 cells; assay type: toxicity, cell-based; settings: read-out: Selectivity Index

Row | SMILES | IC50 [1] | IC50 [2] | IC50 [3] | IC50 [4] | IC50 [7] | IC50 [5] | CC75 [6] | selectivity ratio [8]
1 | CC(=O)O[C@@H]1[C@@H](C)[C@@]2(O)[C@@H](C=C(CO)C[C@]3(O)C(=O)C(C)=C[C@@H]23)[C@@H]2C(C)(C)[C@]12OC(C)=O | > 10 µM | 7.49 µM | 8.91 µM | > 10 µM | 1.36 µM | > 10 µM | > 10 µM | –
2 | CC(=O)OCC1=C[C@H]2[C@@H]3C(C)(C)[C@]3(OC(C)=O)[C@H](O)[C@@H](C)[C@]2(O)[C@@H]2C=C(C)C(=O)[C@@]2(O)C1 | – | – | – | – | – | – | > 5 µM | –
3 | CC(=O)OCC1=C[C@H]2[C@@H]3C(C)(C)[C@]3(OC(C)=O)[C@H](OC(C)=O)[C@@H](C)[C@]2(O)[C@@H]2C=C(C)C(=O)[C@@]2(O)C1 | > 10 µM | > 10 µM | > 10 µM | > 10 µM | > 10 µM | > 10 µM | > 5 µM | –
4 | CC/C=C/C/C=C/C/C=C/C/C=C/C/C=C/CCCC(=O)OCC1=C[C@H]2[C@@H]3C(C)(C)[C@]3(OC(=O)CCC/C=C/C/C=C/C/C=C/C/C=C/C/C=C/CC)[C@H](O)[C@@H](C)[C@]2(O)[C@@H]2C=C(C)C(=O)[C@@]2(O)C1 | > 10 µM | > 10 µM | > 10 µM | > 10 µM | 2.23 µM | > 10 µM | > 5 µM | –
5 | CCCC(=O)OCC1=C[C@H]2[C@@H]3C(C)(C)[C@]3(OC(=O)CCC)[C@H](OC(=O)/C=C/c3ccc(OC(C)=O)c(OC)c3)[C@@H](C)[C@]2(O)[C@@H]2C=C(C)C(=O)[C@@]2(O)C1 | 9.32 µM | 3.71 µM | 6.06 µM | 8.54 µM | > 10 µM | 12.6 µM | – | –
6 | C/C=C/C(=O)O[C@@H]1[C@@H](C)[C@@]2(O)[C@@H](C=C(CO)C[C@]3(O)C(=O)C(C)=C[C@@H]23)[C@@H]2C(C)(C)[C@]12OC(=O)/C=C/C | > 10 µM | > 10 µM | > 10 µM | > 10 µM | 0.408 µM | > 10 µM | > 10 µM | –
7 | CCCCCCCCCCCCCCCCCCCC(=O)O[C@@H]1[C@@H](C)[C@@]2(O)[C@@H](C=C(CO)C[C@]3(O)C(=O)C(C)=C[C@@H]23)[C@@H]2C(C)(C)[C@]12OC(=O)CCCCCCCCCCCCCCCCCCC | > 10 µM | > 10 µM | > 10 µM | > 10 µM | > 10 µM | > 10 µM | > 5 µM | –
8 | CCCC(=O)OCC1=C[C@H]2[C@@H]3C(C)(C)[C@]3(OC(=O)CCC)[C@H](O)[C@@H](C)[C@]2(O)[C@@H]2C=C(C)C(=O)[C@@]2(O)C1 | – | – | – | – | – | – | > 5 µM | –
9 | CC1=C[C@H]2[C@@]3(O)[C@H](C)[C@@H](O)[C@]4(OC(=O)CCc5ccccc5)C([C@@H]3C=C(CO)C[C@]2(O)C1=O)C4(C)C (single isomer, unassigned) | > 10 µM | > 10 µM | > 10 µM | > 10 µM | 5.46 µM | > 10 µM | > 10 µM | –
10 | CC(=O)O[C@H]1C(=O)[C@@]2(C)[C@H]([C@H](OC(=O)c3ccccc3)[C@]3(O)C[C@H](OC(=O)[C@H](O)[C@@H](NC(=O)c4ccccc4)c4ccccc4)C(C)=C1C3(C)C)[C@]1(OC(C)=O)CO[C@@H]1C[C@@H]2O [PACLITAXEL] | 0.015 µM | – | 0.008 µM | 0.008 µM | – | 2.54 µM | – | –

Further lines, with some results ahead:

Row | IC50 [1] | IC50 [2] | IC50 [3] | IC50 [4] | IC50 [7] | SMILES | IC50 [5] | CC75 [6] | selectivity ratio [8]
11 | > 10 µM | > 10 µM | > 10 µM | > 10 µM | 0.362 µM | COc1cc(/C=C/C(=O)O[C@@H]2[C@@H](C)[C@@]3(O)[C@@H](C=C(CO)C[C@]4(O)C(=O)C(C)=C[C@@H]34)[C@@H]3C(C)(C)[C@]23OC(C)=O)ccc1O | > 10 µM | > 5 µM | –
12 | > 10 µM | > 10 µM | 10.1 µM | > 40 µM | > 10 µM | CC/C=C/C/C=C/C/C=C/C/C=C/C/C=C/CCCC(=O)OCC1=C[C@H]2[C@@H]3C(C)(C)[C@]3(OC(=O)CCC/C=C/C/C=C/C/C=C/C/C=C/C/C=C/CC)[C@H](OC(=O)CCC/C=C/C/C=C/C/C=C/C/C=C/C/C=C/CC)[C@@H](C)[C@]2(O)[C@@H]2C=C(C)C(=O)[C@@]2(O)C1 | > 40 µM | > 5 µM | –
13 | > 10 µM | > 10 µM | > 10 µM | > 10 µM | > 10 µM | CC1=C[C@H]2[C@@]3(O)[C@H](C)[C@@H](OC(=O)/C=C/c4ccccc4)[C@]4(OC(=O)/C=C/c5ccccc5)[C@H]([C@@H]3C=C(COC(=O)/C=C/c3ccccc3)C[C@]2(O)C1=O)C4(C)C | > 10 µM | > 5 µM | –
14 | > 10 µM | > 10 µM | > 10 µM | > 10 µM | 0.00046 µM | CC/C=C/C/C=C/C/C=C/C/C=C/C/C=C/CCCC(=O)O[C@@H]1[C@@H](C)[C@@]2(O)[C@@H](C=C(CO)C[C@]3(O)C(=O)C(C)=C[C@@H]23)[C@@H]2C(C)(C)[C@]12OC(C)=O | > 10 µM | > 5 µM | > 10000
15 | > 10 µM | > 10 µM | > 10 µM | > 10 µM | 0.11 µM | CC/C=C/C/C=C/C/C=C/C/C=C/C/C=C/CCCC(=O)O[C@@H]1[C@@H](C)[C@@]2(O)[C@@H](C=C(CO)C[C@]3(O)C(=O)C(C)=C[C@@H]23)[C@@H]2C(C)(C)[C@]12OC(=O)CCC/C=C/C/C=C/C/C=C/C/C=C/C/C=C/CC | > 10 µM | > 5 µM | –
16 | > 10 µM | > 10 µM | > 10 µM | > 10 µM | 0.00227 µM | CC/C=C/C/C=C/C/C=C/C/C=C/C/C=C/CCCC(=O)O[C@@H]1[C@@H](C)[C@@]2(O)[C@@H](C=C(CO)C[C@]3(O)C(=O)C(C)=C[C@@H]23)[C@@H]2C(C)(C)[C@]12OC(=O)CCC | > 10 µM | > 5 µM | > 1500
17 | > 10 µM | > 10 µM | > 10 µM | > 10 µM | 0.0031 µM | CC(=O)O[C@@]12[C@H](OC(=O)/C=C/c3ccccc3)[C@@H](C)[C@@]3(O)[C@@H](C=C(CO)C[C@]4(O)C(=O)C(C)=C[C@@H]34)[C@@H]1C2(C)C | > 10 µM | > 5 µM | > 1500
18 | > 10 µM | > 10 µM | > 10 µM | > 10 µM | > 10 µM | C/C=C(/C)C(=O)O[C@]12C([C@@H]3C=C(CO)C[C@]4(O)C(=O)C(C)=C[C@H]4[C@@]3(O)[C@H](C)[C@H]1O)C2(C)C (single isomer, unassigned) | > 10 µM | > 5 µM | –
19 | > 10 µM | > 10 µM | > 10 µM | > 10 µM | > 10 µM | CC1=C[C@H]2[C@@]3(O)[C@H](C)[C@@H](O)[C@]4(OC(=O)/C=C/c5ccccc5)C([C@@H]3C=C(CO)C[C@]2(O)C1=O)C4(C)C (single isomer, unassigned) | > 10 µM | > 5 µM | –
20 | > 10 µM | 0.09 µM | 1.99 µM | > 10 µM | 0.0623 µM | CC/C=C/C/C=C/C/C=C/C/C=C/C/C=C/CCCC(=O)O[C@]12C([C@@H]3C=C(CO)C[C@]4(O)C(=O)C(C)=C[C@H]4[C@@]3(O)[C@H](C)[C@H]1O)C2(C)C (single isomer, unassigned) | > 10 µM | > 5 µM | > 50
21 | > 10 µM | 3.27 µM | 6.3 µM | > 10 µM | 0.0733 µM | CCCC(=O)OCC1=C[C@H]2C3C(C)(C)[C@]3(OC(=O)CCC)[C@H](OC(=O)/C=C/c3ccccc3)[C@@H](C)[C@]2(O)[C@@H]2C=C(C)C(=O)[C@@]2(O)C1 (single isomer, unassigned) | > 10 µM | > 5 µM | –
22 | > 10 µM | > 10 µM | > 10 µM | > 10 µM | > 10 µM | COc1cc(/C=C/C(=O)O[C@]23C([C@@H]4C=C(CO)C[C@]5(O)C(=O)C(C)=C[C@H]5[C@@]4(O)[C@H](C)[C@H]2O)C3(C)C)ccc1C(C)=O (single isomer, unassigned) | > 10 µM | > 5 µM | –
23 | > 10 µM | 6.22 µM | 6.7 µM | > 10 µM | > 10 µM | C/C=C/C(=O)OCC1=C[C@H]2C3C(C)(C)[C@]3(OC(=O)/C=C/C)[C@H](O)[C@@H](C)[C@]2(O)[C@@H]2C=C(C)C(=O)[C@@]2(O)C1 (single isomer, unassigned) | > 10 µM | > 5 µM | –
24 | > 10 µM | > 10 µM | > 10 µM | > 10 µM | > 10 µM | C/C=C/C(=O)O[C@]12C([C@@H]3C=C(CO)C[C@]4(O)C(=O)C(C)=C[C@H]4[C@@]3(O)[C@H](C)[C@H]1O)C2(C)C (single isomer, unassigned) | > 10 µM | > 5 µM | –
25 | – | – | – | – | 0.0169 µM | Cc1cn([C@H]2C[C@H](N=[N+]=[N-])[C@@H](CO)O2)c(=O)[nH]c1=O [ZIDOVUDINE] | – | > 0.37 µM | –
